# Reference: patent US20030086920A1, “Use of des-Aspartate-angiotensin I as an agent for the treatment and prevention of glomerulosclerosis and renal failure” (priority 2000, published 2003)
# Legend:
# [1] = system: ablation nephropathic rats; assay: Proteinuria in 5/6 nephrectomized (ablation nephropathic) rats; type: in vivo, Sprague Dawley rats; details: for 24-hour urinary excretion of protein: Weeks 9-16 post 5/6 nephrectomy, 762 nmoles/kg/day oral for 8 weeks, mean ± SEM
# Protocol: Five-sixths nephrectomy was carried out as described by Morrison (11). Briefly, each animal was anaesthetized with 7% w/v chloral hydrate (0.4 g/kg, i.p.). An incision was made in the ventral abdominal wall to access the kidneys. Right nephrectomy was performed and the cranial and caudal third of the left kidney were cut off. Tissue adhesive (Histoccryl, B. Braun) was used to seal the cut ends of the left kidney and prevent bleeding. In this way 5/6 of the renal parenchyma was removed. This model results in focal and segmental glomerulosclerosis, resembling renal lesions in humans like oligomeganephronia, membranous nephropathy, minimal change nephritis, proliferative glomerulonephritis, analgesic nephropathy, diabetes mellitus, unilateral nephrectomy, cortical necrosis, and unilateral renal agenesis (9).
# Following the operation, each animal was placed in a metabolic cage for 24 hours once a week for a duration of 8 weeks. The 24-hour urine output and the concentration of protein in the urine were measured. After the 8th week, the animals were randomly divided into two groups (8 animals per group). Animals in one of the group (the treatment group) were orally administered 762 nmoles/kg/day of des-Asp-angiotensin I dissolved in 0.5 ml of saline via a 1-ml syringe with a blunted needle for a period of 8 weeks. The dose of 762 nmoles/kg/day was calculated based on the maximum effective oral anti-cardiac hypertrophic dose (250 nmole per rat of average weight of 328 g) in the original parent patent. Animals in the other group (the control group) were similarly administered with 0.5 ml of saline. Weekly measurement of 24-hour urine output and the concentration of protein in the urine in these animals were carried out for another 8 weeks. The protocol was designed based on our preliminary observation that urinary excretion of protein in the 5/6 nephrectomized rats commenced to increase above the normal value in 7th to 8th week post nephrectomy. A repeat of the experiment with 12 nephrectomized rats per group was carried out.
# Data were expressed as mean±SEM. […]
# cardiac hypertrophy = details: rat of average weight of 328 g, from the original parent patent; cited from earlier work
substance,measurement,setting,value
des-Aspartate angiotensin I [des-Asp-angiotensin I],24-hour urinary excretion of protein,"[1]; 8 rats, first experiment, saline control 37.2 ± 2.3, p = 0.024",*28.7 ± 2.5 mg
same,24-hour urinary excretion of protein,"[1]; 12 rats, repeat experiment, saline control 51.7 ± 4.7, p = 0.048",*39.6 ± 3.3 mg
same,Anti-proteinuric action (progressive development of proteinuria),"[1]; ablation nephropathic rats, oral dose of 762 nmoles/kg/day",effective agent in attenuating the progressive development of proteinuria
same,Maximum effective oral anti-cardiac hypertrophic dose,cardiac hypertrophy,250 nmole per rat
